Consider eight molecules from PubChem BioAssay (NCI).

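The compound was tested at five concentrations on cells cultured in 96-well plates, with a 48-hour exposure period. TGI marks complete inhibition of growth.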 Some results are limits rather than exact numbers.

Holding throughout (test): NCI-60 cell line screen, 48 h
The subject of assay [1] is NCI/ADR-RES ovarian.
The test system of assay [2] is TK-10 renal.
Assay [3] has as its system SK-MEL-28 melanoma.
In assay [4] the test system is A498 renal.
Assay [5] relates to CCRF-CEM leukemia.
Assay [6] deals with NCI-H226 lung.
Assay [7] has as its system T-47D breast.
Assay [8] deals with CAKI-1 renal.
The subject of assay [9] is BT-549 breast.
Assay [10] has as its system KM12 colon.
The test system of assay [11] is SK-MEL-5 melanoma.
Assay [12] deals with SF-295 CNS.
For assay [13], the system named is DU-145 prostate.
The test system of assay [14] is OVCAR-4 ovarian.
Assay [15] has as its system SNB-19 CNS.
Assay [16] concerns A549 NSCLC.
Assay [17] concerns NCI-H460 lung.
The test system of assay [18] is HCC-2998 colon.
Assay [19] deals with HL-60(TB) leukemia.

For `CCOC(=O)/C=C1\c2ccccc2C(=O)N1CC(=O)OCC`, the TGI in [1], in assay [2], in assay [3], in [4], in assay [5] and in assay [6] was > 100 µM in each case. Further, the TGI in assay [7], in assay [8], in [9], in assay [10], in assay [11] and in assay [12] was > 100 µM in each case. The TGI in [13], in [14], in assay [15] and in [16] was > 100 µM throughout.
With `COc1cc(/C=C/c2cc(/C=C/c3ccc(O)c(OC)c3)oc(=O)c2)ccc1O`, the TGI was 26.1 µM in assay [1]; > 30 µM in assay [2]; > 100 µM in assay [3]; 13.6 µM in [4]; > 26.1 µM in [5]; 61.1 µM in assay [6]. The TGI is 4.86 µM in assay [7]; 16.1 µM in assay [8]; 12.2 µM in [9]; 18 µM in assay [10]; > 100 µM in assay [11]; 19.4 µM in [12]. Further, the TGI in [13] was 6.82 µM; in [14], 13.6 µM; in assay [15], > 100 µM; in assay [17], 7.63 µM; in [16], > 100 µM.
Consider `C=C1C(=O)O[C@H]2[C@H]1CC(=O)/C(C)=C/CC[C@@]1(C)O[C@@H]21`, for which the TGI in assay [1] came out at 10.8 µM; in assay [2], 2.65 µM; in assay [3], 1.3 µM; in [4] it was 3.6 µM; in assay [5], 0.394 µM; in [18] it was 6.02 µM. Further, the TGI in assay [6] was determined as 19.8 µM; in assay [7], 2.93 µM; in assay [8] it was 1.28 µM; in [9] it was 2 µM; in assay [10], 7.09 µM; in assay [11], 2.63 µM. The TGI was determined as 31.6 µM in [12]; 18.7 µM in assay [13]; 12.9 µM in assay [14]; 13.8 µM in assay [15]; 29.8 µM in assay [17]; 27.9 µM in assay [16].
As for `Cc1ccc(/C=C/C(=N/NC(=O)N/N=C(/C=C/c2ccc(C)cc2)C(C)(C)CN2CCCCC2)C(C)(C)CN2CCCCC2)cc1`, the TGI in assay [1] is 3.08 µM; in [2], 3.26 µM; in assay [3], 3.18 µM; in assay [19] it was 3.35 µM; in [4], 3.12 µM; in assay [5], 3.08 µM. The TGI was determined as 3.21 µM in [18]; 4.51 µM in assay [6]; 4.02 µM in [7]; 5.56 µM in [8]; 4.21 µM in assay [9]; 3.01 µM in assay [10]. Moreover, the TGI in [11] is 3.08 µM; in [12] it was 3.13 µM; in [14], 4.26 µM; in assay [15], 4.4 µM; in [17], 3.08 µM; in assay [16], 3.02 µM.
With `Cc1c(C)c(S(=O)(=O)N(CCCN)OCCCN)c(C)c2c1OC(C)(C)C2`, the TGI in assay [1] was > 100 µM; in [2], > 100 µM; in assay [3] it was > 100 µM; in assay [4], 42 µM; in assay [5], 90 µM; in assay [18] it was 40.9 µM. Also, the TGI was > 100 µM in [6]; > 100 µM in assay [7]; > 100 µM in assay [8]; > 100 µM in [9]; 38.9 µM in [10]; > 100 µM in assay [11]. The TGI is 98.9 µM in assay [12]; > 100 µM in [13]; > 100 µM in assay [14]; 63.5 µM in assay [15]; > 100 µM in [17]; > 100 µM in assay [16].
For `C=C1CN(Cc2ccccc2)[C@@H]2CCCCC[C@H](C#N)[C@H]12`, the TGI in assay [1], in [2], in assay [3], in [4], in assay [5] and in assay [18] was > 100 µM each time. Moreover, the TGI in assay [6], in [7], in assay [8], in assay [9], in assay [10] and in assay [11] was > 100 µM each time. In addition, the TGI in assay [12] was > 30.7 µM; in assay [13], > 100 µM; in assay [14], > 100 µM; in [15], > 100 µM; in assay [17], > 100 µM; in assay [16], > 100 µM.
Take `COc1cc(N(CCC#N)CCC#N)ccc1/C(N=Nc1ccccc1)=N/NC(=O)c1cc(Br)ccc1O`: the TGI is > 100 µM in assay [1]; > 100 µM in [2]; 87.6 µM in assay [3]; 36.6 µM in assay [19]; 33.2 µM in assay [5]; 48 µM in assay [18]. The TGI was > 100 µM in [6]; 57.8 µM in [7]; 61.4 µM in assay [8]; 65.2 µM in assay [9]; > 100 µM in [10]; 42.3 µM in [11]. Further, the TGI is > 100 µM in assay [12]; 74.3 µM in [13]; 64.4 µM in assay [14]; > 100 µM in assay [15]; 51.1 µM in assay [17]; > 100 µM in [16].
With `CN(C)C(=O)Oc1ccc(-c2cn3cc(NC(=O)c4ccccc4)ccc3n2)cc1`, the TGI in assay [1], in assay [2], in [3], in assay [4], in [5] and in [18] was > 100 µM throughout. Besides, the TGI in [6] was > 100 µM; in [7] it was > 100 µM; in [8] it was > 100 µM; in [9] it was > 100 µM; in assay [10], > 100 µM; in [11], 74.1 µM. Further, the TGI in assay [12], in [13], in assay [14], in [15], in [17] and in assay [16] was > 100 µM in each case.
